Experimental findings from patent publication US12635689B2, “Antifungal compositions” (priority 2019, dated 2026) are described below.

In brackets after ≈: the same amount, converted by molar mass. Entries after “also recorded” stand apart in the source; their conditions may differ. Some results are limits rather than exact numbers.

Data set [1] deals with Z. tritici mitochondria. The data set is classed as cell-based, Zymoseptoria tritici.
Data set [2] relates to Z. tritici cells. It counts as cell-based, Zymoseptoria tritici.
Data set [3] concerns Z. tritici cells. In words: Programmed cell death, CaspACE FITC-VAD-FMK with propidium iodide co-staining. As to conditions: 24 h treatment. It counts as cell-based, Zymoseptoria tritici.
A further data set deals with wheat leaves. As to conditions: in vivo.
In data set [4] the test system is U. maydis. Put plainly: Plasma membrane potential, DiBAC4(3) staining. The data set is classed as cell-based, Ustilago maydis. The settings on record: high concentrations. Here is the method:
(§1) Drug-induced leakage of ions from the cell was then determined by visualizing alterations of the membrane potential in C12-G+-treated cells, using the voltage-sensitive fluorescent probe bis-(1,3-dibutylbarbituric acid) trimethine oxonol, DiBAC4(3), which only stains depolarised cells. […] Therefore, the effect on the plasma membrane is most likely not the primary MoA of C12-G+ in fungi.

For data set [5], the system named is rice leaves. In words: Early plant defence response, diaminobenzidine (DAB) staining of H2O2. It counts as in vivo. The settings on record: 150 μg/ml SACC (salicylic acid 15 mM), 6 h.
Data set [6] concerns U. maydis. In words: Growth inhibition on agar plates supplemented with compound. It counts as cell-based, Ustilago maydis.
For data set [7], the system named is Z. tritici (strain IPO323). More on the design: species or system Zymoseptoria tritici on wheat. The settings on record: in vivo.
In data set [8] the test system is Daphnia magna. In words: Daphnia magna 24 h toxicity (motility, escape response as indicator of mortality). The data set is classed as in vivo. The procedure: Next, water fleas were treated for 24 h with various concentrations of all three SACCs and their motility behaviour and “escape response” monitored as an indicator of mortality. […] Higher amounts of both C18 SACCs eventually killed Daphnia magna, with C18-TMA+ being 1.8-times more toxic than C18-DMS+.

For data set [9], the system named is C109 human skin fibroblasts. Put plainly: Mitochondrial organization in human skin fibroblasts. It counts as cell-based. Here is the method:
The effects on mitochondria may account for the fungal specificity of C12-G+. To test this, mammalian skin C109 fibroblasts were treated with C12-G+ and monitored for its effect on mitochondrial shape and membrane potential.
Low toxicity to humans and in the environment is an important requirement for fungicides. The toxicity of C12-TPP+, C18-TMA+ and C18-DMS+ was therefore tested on C109 human skin fibroblasts. Mitochondrial organization and mitochondrial membrane potential were monitored after incubating with various concentrations of the compounds.

Data set [10] deals with Z. tritici plasma membrane. It counts as cell-based, Zymoseptoria tritici.
Data set [11] has as its system rice leaves. As to conditions: in vivo.
The test system of data set [12] is C109 human skin fibroblasts. Put plainly: Mitochondrial membrane potential in human skin fibroblasts.
The subject of data set [13] is Z. tritici. Put plainly: Growth inhibition on agar plates supplemented with compound. The data set is classed as cell-based, Zymoseptoria tritici.
In data set [14] the test system is Z. tritici. In words: Plasma membrane potential, DiBAC4(3) staining. It counts as cell-based, Zymoseptoria tritici. As to conditions: high concentrations. Here is the method:
as §1

Data set [15] deals with Z. tritici. It counts as cell-based, Zymoseptoria tritici.
In data set [16] the test system is U. maydis. In words: Live/dead staining in liquid culture. It counts as cell-based, Ustilago maydis.
The subject of data set [17] is Daphnia magna. In words: Daphnia magna 30 minute treatment, TMRM mitochondrial potential. The data set is classed as in vivo. The settings on record: 1 μg/ml for 30 minutes. Here is the method: In addition, the toxicity of C12-G+, C18-TMA+ and C18-DMS+ on the water flea Daphnia magna was investigated. This freshwater crustacean is well-established as a reporter organism in toxicity tests. Firstly, Daphnia magna was treated with 1 μg/ml of C12-G+, C18-TMA+ and C18-DMS+ for 30 minutes, followed by visualization of the mitochondrial potential by TMRM.

Data set [18] deals with U. maydis plasma membrane. In words: Plasma membrane integrity with GFP-Sso1 marker (patches, photo-bleaching recovery). It counts as cell-based, Ustilago maydis.
A further data set relates to cellular respiration. In words: Cellular oxygen consumption in cell suspensions. The data set is classed as cell-based, U. maydis.
A further data set has as its system M. oryzae (strain Guy11). The data set is classed as in vivo, Magnaporthe oryzae on rice. The settings on record: rice; for protection at high concentrations: M. oryzae, high concentrations (75 and 100 μg/ml); for disease symptom development: sprayed 24 h before M. oryzae, 4 days, concentration-dependent.
In data set [19] the test system is Z. tritici mitochondria. The data set is classed as cell-based, Zymoseptoria tritici. As to conditions: for mitochondrial depolarisation / inhibition of mitochondrial respiration: Z. tritici.
The next data set deals with U. maydis mitochondria. Put plainly: Mitochondrial depolarisation, TMRM staining. It counts as cell-based, Ustilago maydis. The settings on record: low amounts.
Data set [20] concerns C. albicans. The data set is classed as cell-based, Candida albicans.
A further data set concerns Candida glabrata. It counts as cell-based.
Another data set relates to C. glabrata. The data set is classed as cell-based, Candida glabrata.
For data set [21], the system named is U. maydis. The data set is classed as cell-based, Ustilago maydis.
Data set [22] relates to C. albicans. It counts as cell-based, Candida albicans. This is another data set of the same source.
Data set [23] deals with Candida albicans mitochondria. The data set is classed as cell-based.
In data set [24] the test system is Candida glabrata mitochondria. The data set is classed as cell-based.
The test system of data set [25] is Z. tritici cells. In words: Programmed cell death, Annexin-V-fluorescein staining. It counts as cell-based, Zymoseptoria tritici.

`CCCCCCCCCCCC[S+](C)C` [C12-DMS+, dodecyldimethylsulfonium]: the “EC50 on Z. tritici (mitochondrial fragmentation)” value (from here on “EC50 on Z. tritici”) in the data set on Z. tritici mitochondria [1] was found to be 7.39 µg/mL. The mROS levels entry with Z. tritici cells [2] was “did not increase mROS levels”.
Consider `CCCCCCCCCCCCNC(=N)N` [C12-G+, dodecylguanidinium], for which the “early apoptotic cells (CaspACE FITC-VAD-FMK positive, propidium iodide negative)” value in the data set on Z. tritici cells [3] is “Only a few apoptotic cells”. The “chlorosis or necrosis (phytotoxicity)” value with wheat leaves and in the data set on rice leaves [11] was “none of the SACCs induced chlorosis or necrosis” throughout. The results for the “number of depolarised cells (DiBAC4(3))” value in the data set with U. maydis [4] and in the data set on Z. tritici [14] were “increased the number of depolarised cells” and “had only little effect”, respectively. Besides, in the data set on Z. tritici mitochondria [1], the “EC50 on Z. tritici” value was found to be 6.63 µg/mL (≈ 29.2 µM). Further, the “peroxide production / DAB reaction (plant defence)” value (“peroxide production / DAB reaction” for short) in the data set on rice leaves [5] is “slight peroxide production”. Besides, the “EC50, concentration at 50% inhibition of growth” value was 2.3 µg/mL in the data set with U. maydis [6] and 0.6 µg/mL in the data set on Z. tritici [13] (Z. tritici). Also, the disease symptom development entry (in data set [7]; in the data set with M. oryzae (strain Guy11)) was “Symptom development was inhibited” each time. Moreover, the “protection at high concentrations” value (in [7]; in the data set on M. oryzae (strain Guy11)) was “does not fully suppress; also recorded: did not fully suppress infection” in each case. Moreover, in the data set on Daphnia magna [8], the “concentration that killed all Daphnia magna” value was approximately 1000 ng/mL. Besides, the “effect on mitochondrial organization” value was “caused organelle fragmentation and swollen cristae” in [9] (beyond 20 μg/ml); “little effect on mitochondrial organization” in [9] (concentrations up to 20 μg/ml). The “EC50, effect on fungal plasma membrane” value in data set [10] (Z. tritici) was in the range of 20 to 50 µg/mL. For the same compound, the “lateral mobility of GFP-Sso1” value in data set [10] (Z. tritici) was “this effect was not observed”; in [18] (≥10 μg/ml), “significantly reduced the mobility of GFP-Sso1”. Moreover, the “Z. tritici less sensitive than U. maydis (GFP-Sso1 patches)” value in data set [10] (at 50 μg/ml) is on record as approximately 2 times. Further, the “formation of GFP-Sso1 patches at the cell periphery” value in [10] (high concentrations, Z. tritici) is reported as “induced the formation of GFP-Sso1”; in [18] (high concentrations), “induced the formation of GFP-Sso1”. The “effect on mitochondrial membrane potential” value in [12] (C109 fibroblasts) was “modest effect”. The “antimycin A-induced mROS in the presence of compound” value in the data set with Z. tritici cells [2] is “significantly reduced”. For the same compound, the mROS levels entry in the data set with Z. tritici cells [2] is on record as “decreased mROS concentrations; also recorded: significantly reduced mROS”. Besides, the “Z. tritici more sensitive than U. maydis (growth inhibition)” value in the data set with Z. tritici [13] was approximately 4 times. In addition, the cell viability entry is “most cells were still alive” in the data set on Z. tritici [15] (30-45 minutes incubation, up to 100 μg/ml) and “most cells were still alive” with U. maydis [16] (30-45 minutes incubation, up to 50 μg/ml). Further, the cells killed with Z. tritici [15] (after 1 h at 100 μg/ml) is on record as more than 80%. The killing in the data set with U. maydis [16] (after 1 h at 100 μg/ml) is listed as approximately 15%. Besides, the “mitochondrial potential (TMRM) in Daphnia magna” value in the data set with Daphnia magna [17] is “lost most signal”. Besides, the “motility of Daphnia magna” value with Daphnia magna [17] is reported as “did not affect the motility”. In addition, the cellular oxygen consumption result in the data set on cellular respiration is recorded as “inhibits cellular respiration”. In addition, the “Z. tritici more sensitive than U. maydis (mitochondrial membrane potential)” value in the data set with Z. tritici mitochondria [19] is recorded as approximately 4 times. The “mitochondrial depolarisation (TMRM)” value with U. maydis mitochondria is reported as “depolarised mitochondria”.
In the case of `CCCCCCCCCCCC[N+](CC)(CC)CC` [C12-TEA+, dodecyltriethylammonium], the “EC50 on Z. tritici” value with Z. tritici mitochondria [1] came to 2.38 µg/mL.
The same measure, in the same setting: in the case of `CCCCCCCCCCCC[N+](C)(C)C` [C12-TMA+, dodecyltrimethylammonium] it was 3.85 µg/mL.
For `CCCCCCCCCCCC[P+](c1ccccc1)(c1ccccc1)c1ccccc1` [C12-TPP+, dodecyltriphenylphosphonium], the “EC50 on Z. tritici” value in the data set with Z. tritici mitochondria [1] is 6.63 µg/mL. Besides, in [9] (C109 fibroblasts), the “EC, human mitochondrial organization” value is 5.62 µg/mL. The “effect on human mitochondrial organization” value in data set [9] (C109 fibroblasts, various concentrations) was “little effect on human mitochondrial organization”. In addition, the “EC50, human mitochondrial respiration” value in [12] (C109 fibroblasts) was found to be 0.355 µg/mL. In addition, the “mitochondrial depolarisation / inhibition of mitochondrial respiration” value in the data set with Z. tritici mitochondria [19] is reported as “showed significant inhibition of mitochondrial respiration”.
Consider `C=C(C)[C@H]1Cc2c(ccc3c2O[C@@H]2COc4cc(OC)c(OC)cc4[C@@H]2C3=O)O1` [rotenone], for which, in the data set on Z. tritici cells [2], the mROS levels entry was “decreased mROS levels”; the “more effective in decreasing mROS than C12-G+ and C18-TMA+” value is reported as 3-4 times.
For `O=C(O)c1ccccc1O` [salicylic acid], the “peroxide production / DAB reaction” value with rice leaves [5] is recorded as “brown colouring”.
Turning to antimycin A, the mROS levels entry in the data set with Z. tritici cells [2] is on record as “increase of mROS”.
As to octadecyldimethylsulfonium [C18-DMS+], the “early apoptotic cells (CaspACE FITC-VAD-FMK positive, propidium iodide negative)” value in the data set on Z. tritici cells [3] is reported as “significant increase in early apoptotic cells”. The mROS levels result in the data set on C. albicans [20] was “significantly induced”; with C. glabrata it was “significantly induced”; in the data set with U. maydis [21], “significantly induced”; with Z. tritici cells [2], “significantly induced; also recorded: induced mROS production further”. Further, the “chlorosis or necrosis (phytotoxicity)” value in the data set on wheat leaves and in the data set with rice leaves [11] was “none of the SACCs induced chlorosis or necrosis” each time. Also, the “killing (LIVE/DEAD staining)” value is recorded as “efficiently killed” with Candida glabrata; “efficiently killed” in the data set on C. albicans [22]; “efficiently killed” with Z. tritici [15] (12-14 h exposure, 10 μg/ml). In the data set on Z. tritici mitochondria [1], the “EC50 on Z. tritici” value was 1.72 µg/mL. Besides, the “peroxide production / DAB reaction” value with rice leaves [5] is reported as “much stronger DAB reaction”. Moreover, the disease symptom development entry (in data set [7]; in the data set with M. oryzae (strain Guy11)) was “Symptom development was inhibited” in each case. For the same compound, the “protection at high concentrations” value (in [7]; in the data set with M. oryzae (strain Guy11)) was “almost abolished symptom developments” throughout. Besides, the “effect on Daphnia magna” value with Daphnia magna [8] (at ~1 μg/ml) is recorded as “little effect at this concentration”. The “human mitochondria less sensitive (mitochondrial morphology)” value in data set [9] (printed as compared to C12-G+) is recorded as approximately 29 times. For the same compound, the “relative toxicity in C. albicans” value in the data set on C. albicans [22] is given as “most toxic”. Moreover, the “higher specificity for fungi than for humans (inhibition of mitochondrial respiration)” value in data set [12] (Z. tritici vs human cells) was approximately 53 times. Besides, the “mROS levels with complex I inhibitor rotenone” value in the data set on Z. tritici cells [2] is “did not increase mROS levels”. Also, the mitochondrial potential result in [23] and in [24] was “reduce the mitochondrial potential” in each case. The “Annexin-V-fluorescein membrane-associated fluorescence in apoptotic cells” value in the data set on Z. tritici cells [25] is “only found in C18-DMS+-treated cells”. Further, the “mitochondrial potential (TMRM) in Daphnia magna” value with Daphnia magna [17] is “little or no effect on mitochondrial potential”. For the same compound, the “motility of Daphnia magna” value in the data set on Daphnia magna [17] was “did not affect the motility”. Moreover, the “mitochondrial depolarisation / inhibition of mitochondrial respiration” value with Z. tritici mitochondria [19] is given as “showed significant inhibition of mitochondrial respiration”.
